# Source: BindingDB's records for doi:10.3109/14756366.2013.827675 (Orchid Chemicals & Pharmaceuticals Limited, 2014)
# Target: Histone deacetylase 1/11/4/6/8
# Assay: HDAC Activity screening
# Procedure: Histone Deacetylase (HDAC) Inhibition Assay using Boc-Lys(Ac)-AMC Substrate: Inhibition of HDAC has been implicated to modulate transcription and to induce apoptosis or differentiation in cancer cells. The fluorometric assay provides a fast and fluorescence based method that eliminates radioactivity, extractions or chromatography, as used in traditional assays. The assay is based on two steps. First, the HDAC fluorometric substrate, which comprises an acetylated lysine side chain, is incubated with a sample containing HDAC activity (Mouse Liver Extract). Deacetylation of the substrate sensitizes the substrate; in the second step, treatment with the Trypsin, stop solution produces a fluorophore that can be easily analyzed using fluorescence plate reader. Assay was done in 96-well black microplate and total volume of the assay was […]. Mouse liver enzyme (10 mg/mL) was diluted 1:6 with HDAC buffer. Enzyme cocktail was made of 10 mL of diluted enzyme and 30 mL of HDAC buffer. Forty m
row,SMILES,IC50 [nM]
1,O=C(CCCCn1cc(C(=O)NCc2ccccc2)c(=O)c2ccccc21)NO [Quinolone-based HDAC inhibitor 4d],120
2,COc1ccc(CNC(=O)c2cn(CCCCC(=O)NO)c3ccccc3c2=O)cc1 [Quinolone-based HDAC inhibitor 4e],410
3,O=C(CCCCn1cc(C(=O)NCc2cccs2)c(=O)c2ccccc21)NO [Quinolone-based HDAC inhibitor 4f],390
4,COc1ccc2c(c1)c(=O)c(C(=O)Nc1ccc(F)cc1)cn2CCCCC(=O)NO [Quinolone-based HDAC inhibitor 4l],32
5,COc1ccc(NC(=O)c2cn(CCCCC(=O)NO)c3ccc(OC)cc3c2=O)cc1 [Quinolone-based HDAC inhibitor 4m],75
6,COc1ccc2c(c1)c(=O)c(C(=O)Nc1ccc(OC)c(OC)c1)cn2CCCCC(=O)NO [Quinolone-based HDAC inhibitor 4n],150
7,COc1ccc2c(c1)c(=O)c(C(=O)Nc1cc(-c3ccccc3)nn1C)cn2CCCCC(=O)NO [Quinolone-based HDAC inhibitor 4o],10
8,O=C(CCCCn1cc(C(=O)Nc2ccc(F)cc2)c(=O)c2cc(F)ccc21)NO [Quinolone-based HDAC inhibitor 4q],40
9,COc1ccc(NC(=O)c2cn(CCCCC(=O)NO)c3ccc(F)cc3c2=O)cc1 [Quinolone-based HDAC inhibitor 4r],28
10,COc1ccc(CNC(=O)c2cn(CCCCC(=O)NO)c3ccc(F)cc3c2=O)cc1 [Quinolone-based HDAC inhibitor 4s],330
11,COc1ccc(NC(=O)c2cn(CCCCC(=O)NO)c3ccc(F)cc3c2=O)cc1OC [Quinolone-based HDAC inhibitor 4t],230

# Other lines, results leading:
row,IC50 [nM],SMILES
1,32,O=C(CCCCn1cc(C(=O)Nc2ccccc2)c(=O)c2ccccc21)NO [Quinolone-based HDAC inhibitor 4a]
2,270,O=C(CCCCn1cc(C(=O)Nc2ccc(F)cc2)c(=O)c2ccccc21)NO [Quinolone-based HDAC inhibitor 4b]
3,39,COc1ccc(NC(=O)c2cn(CCCCC(=O)NO)c3ccccc3c2=O)cc1 [Quinolone-based HDAC inhibitor 4c]
4,90,O=C(CCCCn1cc(C(=O)Nc2ccncc2)c(=O)c2ccccc21)NO [Quinolone-based HDAC inhibitor 4g]
5,42,O=C(CCCCn1cc(C(=O)Nc2nccs2)c(=O)c2ccccc21)NO [Quinolone-based HDAC inhibitor 4h]
6,0.1,Cc1csc(NC(=O)c2cn(CCCCC(=O)NO)c3ccccc3c2=O)n1 [Quinolone-based HDAC inhibitor 4i]
7,1.5,O=C(CCCCn1cc(C(=O)Nc2nc3ccccc3s2)c(=O)c2ccccc21)NO [Quinolone-based HDAC inhibitor 4j]
8,32,COc1ccc2c(c1)c(=O)c(C(=O)Nc1ccccc1)cn2CCCCC(=O)NO [Quinolone-based HDAC inhibitor 4k]
9,28,COc1ccc2c(c1)c(=O)c(C(=O)Nc1nc3ccccc3s1)cn2CCCCC(=O)NO [Quinolone-based HDAC inhibitor 4p]
10,85,O=C(CCCCn1cc(C(=O)Nc2ccncc2)c(=O)c2cc(F)ccc21)NO [Quinolone-based HDAC inhibitor 4u]
11,39,O=C(CCCCn1cc(C(=O)Nc2nc3ccccc3s2)c(=O)c2cc(F)ccc21)NO [Quinolone-based HDAC inhibitor 4v]
12,95,O=C(CCCCn1cc(C(=O)NC2=CC(c3ccccc3)N=N2)c(=O)c2ccccc21)NO (stereo not drawn) [Quinolone-based HDAC inhibitor 4w]
